pIC50: −log10 of the molar value.
What was measured:
[1] = molecular target: T1, Dihydrofolate reductase (Homo sapiens, UniProt P00374); experiment: Inhibitory activity against recombinant human dihydrofolate reductase
T1 sequence (P00374 whole entry): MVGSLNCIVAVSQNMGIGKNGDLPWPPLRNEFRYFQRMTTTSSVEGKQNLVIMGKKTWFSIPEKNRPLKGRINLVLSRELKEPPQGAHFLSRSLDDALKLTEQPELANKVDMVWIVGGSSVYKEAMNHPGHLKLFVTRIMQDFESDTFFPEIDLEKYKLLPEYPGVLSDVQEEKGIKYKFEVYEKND

[2] = Selective ratio of Human / Candida albicans was determined
[3] = molecular target: T2, Dihydrofolate reductase (Candida albicans, UniProt P22906); experiment: Inhibitory activity against Candida albicans Dihydrofolate Reductase (DHFR)
T2 sequence (P22906 whole entry): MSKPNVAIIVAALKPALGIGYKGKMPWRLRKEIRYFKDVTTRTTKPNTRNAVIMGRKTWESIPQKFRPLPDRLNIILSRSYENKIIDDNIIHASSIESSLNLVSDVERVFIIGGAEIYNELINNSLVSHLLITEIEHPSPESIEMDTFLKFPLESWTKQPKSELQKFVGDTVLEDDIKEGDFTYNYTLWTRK

pIC50 [1]: 8.18
SI [2]: 1.7
pIC50 [3]: 8.40
SMILES: CCC(CC)n1ccc2c3c(N)nc(N)nc3ccc21
